Experimental findings from paper PMC9459403, “New inhibitors of cathepsin V impair tumor cell proliferation and elastin degradation and increase immune cell cytotoxicity” (Computational and Structural Biotechnology Journal, 2022) are described below.

The structures appear in SMILES notation. Marks after values point to notes of the source that are not given here.

Common to all, as to format: biochemical
The target in test [1] is T1, human recombinant cathepsin L (Homo sapiens, UniProt P07711).
T1 construct: made in house; host or cells: Escherichia coli
T1 sequence (P07711 114-333): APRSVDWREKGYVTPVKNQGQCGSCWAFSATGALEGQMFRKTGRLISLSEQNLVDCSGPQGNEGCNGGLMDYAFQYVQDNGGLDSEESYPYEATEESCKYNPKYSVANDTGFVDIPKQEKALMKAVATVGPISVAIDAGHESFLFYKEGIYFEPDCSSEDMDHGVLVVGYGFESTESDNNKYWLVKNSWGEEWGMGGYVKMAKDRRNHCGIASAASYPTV
As to the kind of experiment: Determination of relative inhibition, substrate Z-Phe-Arg-AMC. The note with it: inhibitor 50 μM; substrate 2 μM; mean ± SD (n = 2); read-out: Cathepsin L Ri (%) relative inhibition. How it is done: (§1) Human recombinant cathepsin V was expressed in Pichia Pastoris, and human recombinant cathepsin L was expressed in Escherichia coli, as reported, [51]. To determine the activities of cathepsins V and L, 100 mM acetate buffer (pH 5.5), containing 0.1 % PEG 8000 (Sigma-Aldrich, St. Louis, MO, USA), 5 mM cysteine, and 1.5 mM EDTA was used. Prior to the assay, the enzyme was activated in the assay buffer for 5 min at 37 °C.
(§2) The effect of the inhibitors on cathepsin V and L activity was determined using the substrate Z-Phe-Arg-AMC (Bachem, Bubendorf, Switzerland). The reaction was initiated by adding 90 μL of the activated enzyme (final concentration 2.5 ng/mL and 0.02 nM for cathepsins V and L, respectively) to the wells of a black microtiter plate containing 5 μL of substrate (with a final concentration 2 μM) and 5 μL of inhibitor (with a final concentration of 50 μM). The formation of fluorescent degradation products during the reaction was monitored continuously at 460 nm ± 10 nm with excitation at 380 nm ± 20 nm at 37 °C on a Tecan Infinite M1000 (Mannedorf, Switzerland) spectrofluorometer. All assay mixtures contained 5 % (v/v) DMSO. To prevent false-positive inhibition due to the formation of compound aggregates, 0.01 % Triton X-100 was used. All measurements were performed in triplicate and repeated at least twice. Relative inhibition was calculated using the following equation: relative inhibition (%) = 100(1- vi/vo), where vi and vo denote the reaction velocities in the presence and absence of the inhibitor, respectively.

Test [2] concerns the target T2, Cathepsin V (Homo sapiens, UniProt O60911).
T2 construct: made in house; host or cells: Pichia pastoris
The test is described as above. The note with it: inhibitor 50 μM; substrate 2 μM; mean ± SD (n = 2); read-out: Cathepsin V Ri (%) relative inhibition. How it is done:
as §1, §2

Test [3] has as its target T1, human recombinant cathepsin L. Briefly: Determination of Ki values and mode of inhibition. The note with it: mean ± SD (n = 2). As for the experimental part:
as §1
(§3) Inhibition constants were calculated from reaction velocities measured at three substrate concentrations (0.5, 1, and 4 μM) in the presence of inhibitors at seven concentrations (0, 20, 40, 60, 80, 100, and 200 µM). The reaction was initiated by adding 90 μL of enzyme at final concentrations of 2.5 ng/mL and 0.02 nM for cathepsins V and L, respectively, to the wells of a black microtiter plate containing 5 μL of substrate and 5 μL of inhibitor. To evaluate cathepsin V and L activity, the substrate Z-Phe-Arg-AMC was used. The formation of the fluorescent degradation products was monitored as described above. All assay mixtures contained 5 % (v/v) DMSO. All measurements were performed in duplicates and repeated at least twice. The SigmaPlot® 12, Enzyme Kinetics Module™ 1.3 was used to calculate Ki values.

Test [4] concerns the target T2, Cathepsin V. Briefly: Determination of Ki values and mode of inhibition. The note with it: mean ± SD (n = 2). As for the experimental part:
as §1, §3

T2 sequence (O60911 114-334): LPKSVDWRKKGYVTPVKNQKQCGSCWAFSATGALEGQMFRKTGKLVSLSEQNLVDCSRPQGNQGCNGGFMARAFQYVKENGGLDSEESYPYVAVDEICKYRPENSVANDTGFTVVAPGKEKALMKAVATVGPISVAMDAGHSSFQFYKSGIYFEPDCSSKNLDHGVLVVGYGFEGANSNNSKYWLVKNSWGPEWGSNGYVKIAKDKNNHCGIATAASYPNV

Turning to `Cc1nc(C2OC2C(=O)c2ccccc2OCc2ccccc2)cs1` (centres unmarked) [Compound 39], the figures for the inhibition at 50 µM (in test [1]; at Cathepsin V [2]) were 6.1 ± 0.7% and 17.1 ± 7.2%, respectively. In test [3], the “Cathepsin L Ki′ (µM)” value is 725.7 ± 142.3^e µM. Further, the Ki (usually a measure of affinity in units of concentration, obtained from inhibition or displacement) in test [3] turned out to be 726 ± 142 µM; on Cathepsin V [4] it was 403 ± 79.7 µM.

For the compound `CN(C)c1ccc(CC(=O)NC2CCCN(Cc3cccnc3)C2)cc1` (centres unmarked) [Compound 30], the inhibition (as a rule, the relative decrease from the control value, in per cent) at 50 µM in test [1] was -1.2 ± 0.3%; on Cathepsin V [2], -2 ± 3.3%.

In the case of `O=C(NCc1nnc2c(C(F)(F)F)cccn12)c1cc2cc(Cl)ccc2[nH]1` [Compound 20], the inhibition at 50 µM was 14.5 ± 2.4% in test [1] and 16.9 ± 0.6% on Cathepsin V [2].

Turning to `Cc1ccc(Cl)c2sc(NC(=O)c3ccc(S(=O)(=O)N4CCc5ccccc5C4)cc3)nc12` [Compound 2], the inhibition at 50 µM in test [1] turned out to be 20 ± 2.2%; on Cathepsin V [2] it was 16.4 ± 0.3%. Besides, the Ki in test [3] came out at 162 ± 1.8 µM.

For the compound `O=C(Nc1nc2c(s1)CN(Cc1ccccc1)CC2)c1ccccc1` [Compound 32], the inhibition at 50 µM was found to be 4.7 ± 3.2% in test [1] and 6.9 ± 2.2% on Cathepsin V [2].

In the case of `COC(=O)Cc1c[nH]c2ccc(OCC(O)CNC(C)C)cc12` (centres unmarked) [Compound 52], the figures for the inhibition at 50 µM (in test [1]; at Cathepsin V [2]) were -0.7 ± 1.5% and 0.3 ± 8.8%, respectively.

`Cc1cc(OCc2ccccc2)c(C(=O)C2OC2c2csc(-c3ccccc3)n2)cc1C` (centres unmarked) [Compound 49]: the results for the inhibition at 50 µM (in test [1]; at Cathepsin V [2]) were 12.9 ± 0.5% and 22.9 ± 1%, respectively. Besides, the Ki turned out to be 546 ± 114 µM in test [3] and 303 ± 11.3 µM on Cathepsin V [4].

As to `O=C(CN1Cc2ccccc2C1)NC1CCCN(Cc2cccc(O)c2)C1` (centres unmarked) [Compound 29], the inhibition at 50 µM in test [1] was -2.4 ± 2%; on Cathepsin V [2] it was -0.5 ± 1.2%.

With `O=C(NC[C@H]1CCCN1c1ccccc1)c1cccnc1` [Compound 14], the inhibition at 50 µM in test [1] was 13.1 ± 2.6%; on Cathepsin V [2], 7.8 ± 3.1%.

For the compound `O=C(NCc1nnc2c(C(F)(F)F)cccn12)c1cc(-c2cccs2)n[nH]1` [Compound 19], the inhibition at 50 µM was 17.8 ± 13.7% in test [1] and 3.8 ± 3.5% on Cathepsin V [2].

As to `Cc1c(C(=O)N2CC(N3CCc4ccccc4C3)C2)cnn1-c1ccccc1` [Compound 15], the inhibition at 50 µM in test [1] is -5.4 ± 7.3%; at Cathepsin V [2] it was -27.6 ± 9.1%.

As for `COCCN1CCC(CNC(=O)NCc2ccc(OC)cc2)CC1` [Compound 43], the inhibition at 50 µM is -0.4 ± 2.5% in test [1] and 5.2 ± 1.8% at Cathepsin V [2].

As to `COC(=O)N1CCC(CNC(=O)NCc2cccc3ccccc23)CC1` [Compound 44], the figures for the inhibition at 50 µM (in test [1]; at Cathepsin V [2]) were 1.1 ± 4.9% and 11.1 ± 11.5%, respectively.

Turning to `O=C(Nc1cc(Cl)ccc1Cl)c1cnc2n(c1=O)CCS2` [Compound 1], the inhibition at 50 µM in test [1] is 4.8 ± 3.9%; at Cathepsin V [2], -5.4 ± 2.4%.

For `COc1ccc(-c2cn3c(CCC(=O)Nc4nc5ccccc5s4)csc3n2)cc1` [Compound 9], the inhibition at 50 µM in test [1] is 17.5 ± 5.3%; on Cathepsin V [2], 18.9 ± 1.3%.

On to `COC(=O)N1CCC(CNC(=O)NC(c2ccccc2)c2ccccc2)CC1` [Compound 45], for which the inhibition at 50 µM in test [1] is 3.3 ± 2.4%; at Cathepsin V [2], 9.2 ± 6.4%.

`O=c1cc(-c2ccccc2)c2cc(Cl)c(OCC3CO3)cc2o1` (centres unmarked) [Compound 23]: the results for the inhibition at 50 µM (in test [1]; on Cathepsin V [2]) were 11.9 ± 6.2% and -2.9 ± 1.8%, respectively.

In the case of `O=C(NCCN1CCN(c2ccc(Cl)cc2)CC1)[C@H]1CC(=O)N(c2ccccc2)C1` [Compound 8], the inhibition at 50 µM is -4.4 ± 2.1% in test [1] and -20.3 ± 3.5% at Cathepsin V [2].

For the compound `Cc1cc(CNC(=O)Cc2cccc3ccccc23)ncn1` [Compound 17], the inhibition at 50 µM in test [1] was 9.4 ± 9.5%; at Cathepsin V [2] it was -2.4 ± 5.6%.

On to `O=C(NCc1cccc2ccccc12)Nc1ccc2c(c1)CCCN2C(=O)c1cccs1` [Compound 10], for which the inhibition at 50 µM in test [1] was 21.5 ± 1.2%; at Cathepsin V [2], 17.8 ± 3.3%.

For the compound `O=C(NC(Cc1ccccc1)C(=O)O)C1CCC(CNC(=O)C2Cc3ccccc3CN2)CC1` (centres unmarked) [Compound 51], the inhibition at 50 µM in test [1] was -4 ± 7.3%; at Cathepsin V [2] it was -9.8 ± 5.8%.

In the case of `COc1ccc(NC(C)=O)cc1NC(=O)c1n[nH]c2ccccc12` [Compound 6], the inhibition at 50 µM in test [1] is 40.3 ± 4.5%; on Cathepsin V [2] it was over 20%. Also, the Ki worked out at 635 ± 167 µM in test [3] and 371 ± 86.1 µM at Cathepsin V [4].

For the compound `Cc1noc(-c2cccn3c(CNC(=O)c4cc(-c5cccs5)n[nH]4)nnc23)n1` [Compound 18], the inhibition at 50 µM was 13 ± 7.9% in test [1] and 6.7 ± 0.03% at Cathepsin V [2].

`CC1Oc2ccccc2OC1C(=O)NCC#CCN1CCc2ccccc2C1` (centres unmarked) [Compound 12]: the inhibition at 50 µM in test [1] is 15.6 ± 1.2%; on Cathepsin V [2], -9.5 ± 9.2%.

With `COc1ccc(CNC(=O)NCC2CCN(C(=O)Oc3ccccc3)CC2)cc1` [Compound 47], the inhibition at 50 µM in test [1] came out at 4.4 ± 4.6%; at Cathepsin V [2] it was 9.5 ± 2.5%.

Turning to `Cc1[nH]c(C(=O)NCCCc2nc3ccccc3[nH]2)c(C)c1C(=O)OC(C)C` [Compound 37], the inhibition at 50 µM was -2.1 ± 0.7% in test [1] and -3.4 ± 2.9% at Cathepsin V [2].

With `COC(=O)Cc1c[nH]c2ccc(OCC3CO3)cc12` (centres unmarked) [Compound 21], the inhibition at 50 µM in test [1] was 15.3 ± 2.9%; on Cathepsin V [2], over 20%. The Ki turned out to be 236 ± 10.3 µM in test [3] and 159 ± 32.8 µM on Cathepsin V [4].

Regarding `O=C(c1cc(Br)ccc1OCc1ccccc1)C1OC1c1cc2ccccc2o1` (centres unmarked) [Compound 26], the inhibition at 50 µM in test [1] stood at 10.6 ± 4.5%; at Cathepsin V [2], 6.3 ± 4.6%. Further, in test [3], the Ki amounted to 375 ± 20.5 µM.

For `O=C(c1cc(F)ccc1OCc1ccccc1)C1OC1c1ccc2c(c1)OCCO2` (centres unmarked) [Compound 24], the inhibition at 50 µM in test [1] came out at 17.7 ± 11.7%; at Cathepsin V [2] it was 0.8 ± 3.3%.

For `COc1ccc(CNC(=O)N2CCC(C(N)=O)CC2)cc1` [Compound 36], the inhibition at 50 µM in test [1] is -0.6 ± 1.7%; at Cathepsin V [2] it was 15.2 ± 10%.

For `CCOC(=O)N1CCC(NC(=O)NCc2ccc(OC)cc2)CC1` [Compound 33], the figures for the inhibition at 50 µM (in test [1]; on Cathepsin V [2]) were 3.4 ± 4.4% and -1.6 ± 6.5%, respectively.

Turning to `Brc1ccccc1CNc1ncncc1-c1nc(-c2ccsc2)no1` [Compound 11], the inhibition at 50 µM is 6.3 ± 2.6% in test [1] and -3.1 ± 4.6% on Cathepsin V [2].

Consider `COc1ccc(CNC(=O)N2CCC(C(=O)N3CCCCC3)CC2)cc1` [Compound 50], for which the inhibition at 50 µM is 13.8 ± 0.5% in test [1] and -2.9 ± 4% on Cathepsin V [2].

For the compound `COc1ccc(CNC(=O)NCC2CCN(C(=O)N(C)C)CC2)cc1` [Compound 46], the inhibition at 50 µM came to 4.3 ± 4.1% in test [1] and 12.1 ± 9.8% at Cathepsin V [2].

With `O=C(Nc1nc2c(s1)CN(Cc1ccccc1)CC2)c1ccc(-c2ccccc2)cc1` [Compound 31], the results for the inhibition at 50 µM (in test [1]; at Cathepsin V [2]) were 20.9 ± 7.2% and 29.2 ± 7%, respectively.

Take `Cc1cc(C)c2sc(NC(=O)c3ccc(S(=O)(=O)N4CCc5ccccc5C4)cc3)nc2c1` [Compound 3]: the inhibition at 50 µM in test [1] is 147 ± 88.7%.

Regarding `COc1ccc(C(=O)C2OC2c2cc3ccccc3o2)c(OCc2ccccc2)c1` (centres unmarked) [Compound 22], the inhibition at 50 µM in test [1] is 11.1 ± 4.4%; at Cathepsin V [2], -7.2 ± 7.7%.

Consider `Cc1nccc(O[C@H]2CCN(S(=O)(=O)/C=C/c3ccccc3)C2)n1` [Compound 16], for which the inhibition at 50 µM was -1 ± 4.8% in test [1] and -6.5 ± 0.9% at Cathepsin V [2].

Consider `O=C(N[C@H]1CCCN(Cc2ccccc2)C1)c1ccc(CN2CCCC2)o1` [Compound 28], for which the inhibition at 50 µM was -4.6 ± 5.2% in test [1] and 1.1 ± 9% on Cathepsin V [2].

`O=C(NCC(O)CN1CCOCC1)c1cc2cc(Br)ccc2[nH]1` (centres unmarked) [Compound 35]: the results for the inhibition at 50 µM (in test [1]; on Cathepsin V [2]) were 12 ± 1.3% and 16.6 ± 8.4%, respectively.

With `O=C(Nc1ccc(F)cc1)OC1CCCC(NC(=O)c2c(F)cccc2F)C1` (centres unmarked) [Compound 13], the inhibition at 50 µM came out at 13.4 ± 1.4% in test [1] and 7.5 ± 5% at Cathepsin V [2].

`CNC(=O)C1(COC)CCCN1C(=O)CN1CCOCC1=O` (centres unmarked) [Compound 38]: the figures for the inhibition at 50 µM (in test [1]; on Cathepsin V [2]) were 2.3 ± 3.1% and 7.9 ± 0.4%, respectively.

With `CC(=O)N1CCc2cc(C(=O)C(C)OC(=O)CCc3nc(-c4cccs4)no3)ccc21` (centres unmarked) [Compound 34], the inhibition at 50 µM in test [1] is -3 ± 0.5%.
